Measured values as given in patent US8637501B2, “Azinone-substituted azepino[b]indole and pyrido-pyrrolo-azepine MCH-1 antagonists, methods of making, and use thereof” (Albany Molecular Research, Inc., priority 2009, dated 2014).
Structures can show the parent of a compound that is named as a salt.

Molecular target: human MCH-1 receptor (Homo sapiens (Human), UniProt Q99705)
Assay: Binding Assay for Human Melanin-Concentrating Hormone (MCH-1) Receptor
Details: radioligand displacement, membranes from CHO-K1 cells expressing human MCH-1 receptor; Ki from IC50 by Cheng Prusoff equation; read-out: MCH1 Ki
Experimental: Binding Assay for Human Melanin-Concentrating Hormone (MCH-1) Receptor
Evaluation of the affinity of compounds for the human MCH-1 receptor was accomplished using 4-(3,4,5-tritritiumbenzyloxy)-1-(1-(2-(pyrrolidin-1-yl)ethyl)-1H-indazol-5-yl)pyridin-2(1H)-one and membranes prepared from stable CHO-K1 cells expressing the human MCH-1 receptor obtained from Euroscreen (Batch 1138). Cell membrane homogenates (8.92 μg protein) were incubated for 60 min at 25° C. with 1.4 nM of the [^3H]-labeled compound in the absence or presence of the test compound in 50 mM Tris-HCl buffer, pH 7.4. Nonspecific binding was determined in the presence of 50 μM 1-(5-(4-cyanophenyl)bicyclo[3.1.0]hexan-2-yl)-3-(4-fluoro-3-(trifluoromethyl)phenyl)-1-(3-(4-methylpiperazin-1-yl)propyl)urea. Following incubation, the samples were filtered rapidly under vacuum through Skatron 11731 filters, pre-soaked in 0.5% polyethylenimine, and washed with ice-cold 50 mM Tris-HCl buffer, pH 7.4, (wash setting 9,9,0) using a Skatron cell harvester. The filters were counted for radioactivity in a liquid scintillation counter (Tri-Carb 2100TR, Packard) using a scintillation cocktail (Ultima Gold MV, Perkin Elmer).
The results are expressed as a percent inhibition of the control radioligand specific binding. The IC50 value (concentration causing a half-maximal inhibition of control specific binding) and Hill coefficient (nH) were determined by non-linear regression analysis of the competition curve using Hill equation curve fitting. The inhibition constant (Ki) was calculated from the Cheng Prusoff equation: (Ki=IC50/(1+(L/KD)), where L=concentration of radioligand in the assay, and KD=affinity of the radioligand for the receptor.

Sequence of human MCH-1 receptor (Q99705 whole entry): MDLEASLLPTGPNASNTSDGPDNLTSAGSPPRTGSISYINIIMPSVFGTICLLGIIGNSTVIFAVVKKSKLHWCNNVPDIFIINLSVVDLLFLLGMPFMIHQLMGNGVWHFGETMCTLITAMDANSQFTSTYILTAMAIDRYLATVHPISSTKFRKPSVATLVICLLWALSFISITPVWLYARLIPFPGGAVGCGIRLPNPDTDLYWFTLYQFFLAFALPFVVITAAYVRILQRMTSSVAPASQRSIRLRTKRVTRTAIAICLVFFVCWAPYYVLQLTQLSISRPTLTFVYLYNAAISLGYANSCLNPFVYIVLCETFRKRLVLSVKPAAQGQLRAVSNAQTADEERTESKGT

| Ki [nM] | SMILES |
| --- | --- |
| 10.1 | Cn1c2c(c3ccc(-n4ccc(-c5ccc(C(F)(F)F)cn5)cc4=O)cc31)CCNCC2 [Example 3, 1-(6-Methyl-1,2,3,4,5,6-hexahydroazepino[4,5-b]indol-8-yl)-4-(5-(trifluoromethyl)pyridin-2-yl)pyridin-2(1H)-one dihydrochloride] |
| 7.1 | Cn1c2c(c3ccc(-n4ccc(-c5ccc(C(F)(F)F)nc5)cc4=O)cc31)CCNCC2 [Example 4, 1-(6-Methyl-1,2,3,4,5,6-hexahydroazepino[4,5-b]indol-8-yl)-4-(6-(trifluoromethyl)pyridin-3-yl)pyridin-2(1H)-one dihydrochloride] |
| 11.8 | Cn1c2c(c3ccc(-n4ccc(OCc5ccc(C(F)(F)F)nc5)cc4=O)cc31)CCNCC2 [Example 5, 1-(6-Methyl-1,2,3,4,5,6-hexahydroazepino[4,5-b]indol-8-yl)-4-((6-(trifluoromethyl)pyridin-3-yl)methoxy)pyridin-2(1H)-one dihydrochloride] |
| 131 | Cn1c2c(c3ccc(-n4ccc(-c5cnc(C(F)(F)F)nc5)cc4=O)cc31)CCNCC2 [Example 6, 1-(6-Methyl-1,2,3,4,5,6-hexahydroazepino[4,5-b]indol-8-yl)-4-(2-(trifluoromethyl)pyrimidin-5-yl)pyridin-2(1H)-one dihydrochloride] |
| 148 | O=c1cc(-c2ccc(C(F)(F)F)nn2)ccn1-c1ccc2c3c([nH]c2c1)CCNCC3 [Example 8, 1-(1,2,3,4,5,6-Hexahydroazepino[4,5-b]indol-8-yl)-4-(6-(trifluoromethyl)pyridazin-3-yl)pyridin-2(1H)-one dihydrochloride] |
| 1370 | O=c1cc(-c2ccc(C(F)(F)F)cn2)ccn1-c1ccc2c3c([nH]c2c1)CCNCC3 [Example 9, 1-(1,2,3,4,5,6-Hexahydroazepino[4,5-b]indol-8-yl)-4-(5-(trifluoromethyl)pyridin-2-yl)pyridin-2(1H)-one dihydrochloride] |
| 13.4 | Cn1c2c(c3ccc(-n4ncc(OCc5ccc(F)cn5)cc4=O)cc31)CCNCC2 [Example 10, 5-((5-Fluoropyridin-2-yl)methoxy)-2-(6-methyl-1,2,3,4,5,6-hexahydroazepino[4,5-b]indol-8-yl)pyridazin-3(2H)-one dihydrochloride] |
| 49 | Cc1ccc(-c2ccn(-c3ccc4c5c(n(C)c4c3)CCNCC5)c(=O)c2)cn1 [Example 11, 1-(6-Methyl-1,2,3,4,5,6-hexahydroazepino[4,5-b]indol-8-yl)-4-(6-methylpyridin-3-yl)pyridin-2(1H)-one dihydrochloride] |
| 11.4 | O=c1cc(-c2ccc(C(F)(F)F)cc2)ccn1-c1ccc2c3c([nH]c2c1)CCNCC3 [Example 12, 1-(1,2,3,4,5,6-Hexahydroazepino[4,5-b]indol-8-yl)-4-(4-(trifluoromethyl)phenyl)pyridin-2(1H)-one hydrochloride] |
| 13.7 | CC(C)N1CCc2c(n(C)c3cc(-n4ccc(OCc5ccc(F)cn5)cc4=O)ccc23)CC1 [Example 16, 4-((5-Fluoropyridin-2-yl)methoxy)-1-(3-isopropyl-6-methyl-1,2,3,4,5,6-hexahydroazepino[4,5-b]indol-8-yl)pyridin-2(1H)-one hydrochloride] |
| 242 | Cl.Cn1c2c(c3ccc(-n4ccc(-c5ccc(C(F)(F)F)cn5)cc4=O)cc31)CCCNC2 [Example 20, 1-(10-Methyl-1,2,3,4,5,10-hexahydroazepino[3,4-b]indol-8-yl)-4-(5-trifluoromethyl)pyridin-2-yl)pyridin-2(1H)-one hydrochloride] |
| 11.2 | Cn1c2c(c3ccc(-n4ccc(OCc5ccc(F)cn5)cc4=O)cc31)CNCCC2 [Example 22, 4-((5-Fluoropyridin-2-yl)methoxy)-1-(6-methyl-1,2,3,4,5,6-hexahydroazepino[4,3-b]indol-8-yl)-)pyridin-2(1H)-one hydrochloride] |
| 6.4 | Cn1c2c(c3ccc(-n4ccc(OCc5ccc(C(F)(F)F)nc5)cc4=O)cc31)CNCCC2 [Example 24, 1-(6-Methyl-1,2,3,4,5,6-hexahydroazepino[4,3-b]indol-8-yl)-4-((6-(trifluoromethyl)pyridin-3-yl)methoxy)pyridin-2(1H)-one hydrochloride] |
| 42.3 | Cn1c2c(c3ccc(-n4ccc(-c5cnc(C(F)(F)F)nc5)cc4=O)cc31)CNCCC2 [Example 25, 1-(6-Methyl-1,2,3,4,5,6-hexahydroazepino[4,3-b]indol-8-yl)-4-(2-(trifluoromethyl)pyrimdin-5-yl)pyridin-2(1H)-one hydrochloride] |
| 6.1 | Cl.Cn1c2c(c3ccc(-n4ccc(-c5ccc(C(F)(F)F)cc5)cc4=O)cc31)CNCCC2 [Example 26, 1-(6-Methyl-1,2,3,4,5,6-hexahydroazepino[4,3-b]indol-8-yl)-4(4-trifluoromethyl)phenyl)pyridin-2(1H)-one hydrochloride] |
| 5 | CN1CCCc2c(c3ccc(-n4ccc(OCc5ccccc5)cc4=O)cc3n2C)C1 [Example 29, 4-(Benzyloxy)-1-(2,6-dimethyl-1,2,3,4,5,6-hexahydroazepino[4,3-b]indol-8-yl)pyridin-2(1H)-one hydrochloride] |
| 5 | CCN1CCCc2c(c3ccc(-n4ccc(OCc5ccccc5)cc4=O)cc3n2C)C1 [Example 30, 4-(Benzyloxy)-1-(2-ethyl-6-methyl-1,2,3,4,5,6-hexahydroazepino[4,3-b]indol-8-yl)pyridin-2(1H)-one hydrochloride] |
| 9.4 | CC(C)N1CCCc2c(c3ccc(-n4ccc(OCc5ccccc5)cc4=O)cc3n2C)C1 [Example 31, 4-(Benzyloxy)-1-(2-isopropyl-6-methyl-1,2,3,4,5,6-hexahydroazepino[4,3-b]indol-8-yl)pyridin-2(1H)-one hydrochloride] |
| 10.6 | Cc1ccc(COc2ccn(-c3ccc4c5c(n(C)c4c3)CCCNC5)c(=O)c2)cn1 [Example 34, 1-(6-Methyl-1,2,3,4,5,6-hexahydroazepino[4,3-b]indol-8-yl)-4-((6-methylpyridin-3-yl)methoxy)pyridin-2(1H)-one hydrochloride] |
| 5.8 | O=c1cc(OCc2ccccc2)ccn1-c1ccc2c3c([nH]c2c1)CCCNC3 [Example 35, 4-(Benzyloxy)-1-(1,2,3,4,5,6-hexahydroazepino[4,3-b]indol-8-yl)pyridin-2(1H)-one hydrochloride] |
| 16.8 | Cn1c2c(c3ccc(-n4ncc(OCc5ccc(F)cn5)cc4=O)cc31)CNCCC2 [Example 39, 5-((5-Fluoropyridin-2-yl)methoxy)-2-(6-methyl-1,2,3,4,5,6-hexahydroazepino[4,3-b]indol-8-yl)pyridazin-3(2H)-one hydrochloride] |

| SMILES | Ki [nM] |
| --- | --- |
| Cn1c2c(c3ccc(-n4ccc(-c5ccc(C(F)(F)F)nn5)cc4=O)cc31)CCNCC2 [Example 2, 1-(6-Methyl-1,2,3,4,5,6-hexahydroazepino[4,5-b]indol-8-yl)-4-(6-(trifluoromethyl)pyridazin-3-yl)pyridin-2(1H)-one dihydrochloride] | 14.4 |
| O=c1cc(OCc2ccc(F)cn2)ccn1-c1ccc2c3c([nH]c2c1)CCNCC3 [Example 13, 4-((5-Fluoropyridin-2-yl)methoxy)-1-(1,2,3,4,5,6-hexahydroazepino[4,5-b]indol-8-yl)pyridin-2(1H)-one dihydrochloride] | 10.3 |
